How the values were obtained:
Serratia marcescens [1] = experiment: Antibacterial activity against Serratia marcescens assessed as inhibition of bacterial growth measured after 96 hrs relative to control; format: functional
Serratia marcescens [2] = experiment: Antibacterial activity against Serratia marcescens assessed as inhibition of bacterial growth measured after 168 hrs relative to control; format: functional

## COc1cc(C=O)ccc1O [VANILLIN]
Serratia marcescens [1]
  inhibition (INH): 0.3%
Serratia marcescens [2]
  inhibition (INH): 0.4%

From ChEMBL document CHEMBL5360524 (Bioorg Med Chem, 2022)
